Measured values reported in patent publication US20240108610A1, “RECTAL ADMINISTRATION OF ROFLUMILAST FOR THE TREATMENT OF CROHN'S DISEASE” (King Abdulaziz University, priority 2022, published 2024).

Legend:
[1] = tested on: trinitrobenzenesulfonic acid (TNBS)-induced colitis; test: Histopathological examination of colonic sections (H&E, Masson trichrome, PAS); assay type: in vivo, rat
Experimental: (§1) Chronic colitis was induced by weekly rectal injections of increasing doses of TNBS over 6 weeks (15, 30, 45, 60, 60, and 60 mg from day 0 to day 35), as previously described (4,12). Briefly, after food deprivation for 24 h, rats were anesthetized with an intraperitoneal injection of 1% isoflurane. TNBS was dissolved in ethanol (50%) and instilled into the colon using a cannula (0.25 mL), and then the rats were held upside down for 3 min to prevent escape of the intracolonic TNBS. Roflumilast was dissolved in dimethyl sulfoxide and diluted in 0.5% carboxymethyl cellulose sodium to a final concentration of 5.0 mg·kg^−1·day^−1 as previously described (13). Five groups of rats (n=8) were established: normal control (NC group), TNBS-treated (TNBS group, positive control), and three TNBS-treated groups that received oral sulfasalazine (SS group, 500 mg/kg) (14), oral roflumilast (by gastric gavage, OR group, 5 mg/kg), or rectal roflumilast (RR group, 5 mg/kg). Treatments were administered once daily in a volume of 200 μL for 15 days starting 48 h after the induction of colitis (from day 37) (15), and the control rats received equal amounts of vehicle. At the end of the treatment period, the rats were evaluated with the colitis activity score. To detect the effects of the treatments on systemic inflammatory processes, blood was collected for measurements of the proinflammatory mediators TNF-α, IL-2, and IL-6. At the end of the 15-day treatment period, the rats were sacrificed by cervical dislocation, and the colon was isolated, cleaned of feces, and measured for weight and length. Colonic myeloperoxidase (MPO) activity and glutathione (GSH) and malonaldehyde (MDA) levels were measured. The colon was examined macroscopically for gross changes and microscopically in sections stained with hematoxylin and eosin (H&E), Masson trichrome, and Periodic Acid Schiff (PAS) stains as well as KI-67 and TNF-α immunostaining. The colonic segments were fixed in 10% buffered formalin and embedded in paraffin. Afterwards, 3-5-μm-thick sections were made and stained with H&E, Masson's trichrome for collagen, and PAS for lymphocytes and mucopolysaccharides. The severity of the lesions was evaluated by a blinded histopathologist as normal, mild, moderate, or marked injury (21).

[2] = tested on: KI-67; test: KI-67 immunostaining of colonic sections; assay type: in vivo, rat
Experimental: as §1, with “[…] This primary antibody was detected using avidin-biotin peroxidase detection solution (Dako),” for “The colonic segments were fixed in 10% buffered formalin”, “and” for “and embedded in paraffin. Afterwards, 3-5-μm-thick sections were made and stained with H&E, Masson's trichrome for collagen, and PAS for lymphocytes and mucopolysaccharides. The severity of”, “signal” for “lesions”, “visualized using diaminobenzidine. […]” for “evaluated by a blinded histopathologist as normal, mild, moderate, or marked injury (21).”

[3] = oral, once daily for 15 days, sulfasalazine 500 mg/kg, roflumilast 5 mg/kg
[4] = rectal, 5 mg/kg once daily for 15 days

What does the source list for `O=C(Nc1c(Cl)cncc1Cl)c1ccc(OC(F)F)c(OCC2CC2)c1` [roflumilast]?
PAS-stained goblet cells [1, 3]: moderate population; collagen deposition, Masson trichrome [1, 3]: moderate decrease; colonic sections stained with H&E, improvement [1, 3]: moderate improvement; PAS-stained goblet cells [1, 4]: small population; collagen deposition, Masson trichrome [1, 4]: mild decrease; colonic sections stained with H&E, improvement [1, 4]: mild improvement; KI-67 immunoexpression in the mucosa [2, 3]: mildly positive reactions; KI-67 immunoexpression in the mucosa [2, 4]: very mild positive reactions

`O=C(O)c1cc(/N=N/c2ccc(S(=O)(=O)Nc3ccccn3)cc2)ccc1O` [sulfasalazine] was tested. Which PAS-stained goblet cells [1, 3] did it give?
Its PAS-stained goblet cells is “nearly normal population”.

What about the “collagen deposition, Masson trichrome” value [1, 3] of the same molecule?
The value was “marked decrease”.

What about the “colonic sections stained with H&E, improvement” value [1, 3] of the same molecule?
The value was “marked improvement”.

And the “KI-67 immunoexpression in the mucosa” value [2, 3]?
Its value is “moderately positive reactions”.
